These results are taken from US20130184246A1, “METHOD FOR TREATING FATTY LIVER DISEASES, IN PARTICULAR NON-ALCOHOLIC STEATOHEPATITIS” (priority 2010, published 2013).

For experiment [1], the system named is LDLr−/− mice. Description: Plasma lipid analysis, NASH treatment with 27-HC. In kind it is in vivo. The method, then:
(§1) The experimental approach consisted of utilizing low-density (LDL) receptor-deficient mice (LDLr−/−) on a C57B16 background. This mouse model is predisposed to elevated serum cholesterol levels when fed a high-fat diet. On a normal chow diet, these mice have a three-fold increase in cholesterol levels when compared to controls.^(39) The lab determined that two weeks is sufficient for mice to reach a steatotic and inflamed liver state.
Experiments were performed in accordance with Dutch law for animal experimentation and approved by the Committee for Animal Welfare of the University of Maastricht. In this study, the aim was to investigate the ability of 27-hydroxycholesterol (generous gift from Dr. Norman B. Javitt; New York University School of Medicine) to reduce hepatic inflammation and to characterize its potential use as a therapeutic agent for NASH patients. […]
Plasma cholesterol and triglyceride measurements were tested with the enzymatic color tests. […] Absorbance was measured at the 490 nm wavelength with a Benchmark 550 Micro-plate reader. […] Subsequently, 200 μl of reagent A was added, mixed, and after 15 minutes of incubation, read at a wavelength of 545 nm for the initial absorbance. […] The final absorbance was then measured at 545 nm. The concentration of triglycerides was then calculated by subtracting the initial concentrations from the final concentrations. […]

The subject of experiment [2] is LDLr−/− mice. The experiment in a line: Liver lipid analysis, NASH treatment with 27-HC. In kind it is in vivo. The method, then: as §1
Experiments were performed in accordance with Dutch law for animal experimentation and approved by the Committee for Animal Welfare of the University of Maastricht. […]
Homogenization of approximately 50 mg of frozen liver tissue was completed at 5000 rpm for 30 seconds with 1.0 mm glass beads along with 1.0 ml SET buffer (sucrose 250 mmol/L, EDTA 2 mmol/L, and Tris 10 mmol/L). […] After adding 200 μl of the reagents (50 parts A, 1 part B) and letting the mixture stand for 30 minutes at 37° C., the absorbance was measured utilizing the enzymatic color test bicinchoninic acid (BCA) method (Pierce, Rockford, Ill.) at a wavelength of 560 nm with a Benchmark 550 Micro-plate reader (170-6750XTU; Bio-Rad, Hercules, Calif.). […]

Experiment [3] relates to LDLr−/− mice. Description: Steatosis scoring by HE and oil red O staining of liver sections. In kind it is in vivo. The note with it: high-fat diet 27-HC-treated groups. As to the method: A total of five different experimental groups, ranging from eigtht to nine mice per group, were used to assess the effects of 27-HC. The 27-HC was dissolved in 2-hydroxypropyl-β-cyclodextrin (Sigma-Aldrich GmbH H5784; St. Louis, Mo.) and injected with a concentration of 40 mg of 27-HC per kilogram of body weight via a subcutaneous injection. Mice in Group A received a chow diet and control injections consisting of 2-hydroxypropyl-β-cyclodextrin dissolved in sodium chloride. Group B mice were also on the chow diet but are given daily subcutaneous injections of 27-HC. Group C were the mice that received the high-fat diet (21% fat; 0.2% cholesterol) and control injections. To differentiate between a therapeutic and a regression effect of the 27-HC, the following two groups were set up: a high-fat diet with daily 27-HC injections (Group D) and a high-fat diet group with two weeks of control injections followed by a week of 27-HC injections (Group E). Mice were housed under standard conditions with food and water available ad libidum. […]
Stained sections were scored in a blind manner by a specialized animal pathologist. […] Sections were scored for the quantity of fat droplets and for the foamy appearance of Kupffer cells. […]
To verify the quantification of fat, 7 μm thick frozen sections were stained with oil red O (ORO; O0725; Sigma-Aldrich), the neutral lipid marker. […]

In experiment [4] the test system is LDLr−/− mice. Description: Hepatic inflammation: immunohistochemical staining for infiltrated macrophages (MAC1) and neutrophils (NIMP). In kind it is in vivo. Conditions: vs Group C; for Infiltrated macrophages (MAC1 staining): FIG. 3A. The method, then:
A total of five different experimental groups, ranging from eigtht to nine mice per group, were used to assess the effects of 27-HC. The 27-HC was dissolved in 2-hydroxypropyl-β-cyclodextrin (Sigma-Aldrich GmbH H5784; St. Louis, Mo.) and injected with a concentration of 40 mg of 27-HC per kilogram of body weight via a subcutaneous injection. Mice in Group A received a chow diet and control injections consisting of 2-hydroxypropyl-β-cyclodextrin dissolved in sodium chloride. Group B mice were also on the chow diet but are given daily subcutaneous injections of 27-HC. Group C were the mice that received the high-fat diet (21% fat; 0.2% cholesterol) and control injections. To differentiate between a therapeutic and a regression effect of the 27-HC, the following two groups were set up: a high-fat diet with daily 27-HC injections (Group D) and a high-fat diet group with two weeks of control injections followed by a week of 27-HC injections (Group E). Mice were housed under standard conditions with food and water available ad libidum.
One day previous to the start of the experiment, the mice were weighed and 100-200 μl of blood were collected in a capillary tube after four hours of fasting via an incision in the tail vein. On day 0, the feeding of specialized diets and injections began according to each group. On the 21st day after the start of the experiment, the animals were weighed and fasted for four hours and had another 100-200 μl of blood drawn and collected in a capillary tube via an incision in the tail vein. Afterwards, the mice were sacrificed via cervical dislocation and immediately had their livers removed via a laparotomy consisting of an incision from the pelvis to the rib cage to gain access into the abdomen. […]
Nikon digital camera model DMX1200 and ACT-1 v2.63 software from Nikon Corporation were used to photograph each section. […] The positive cells for each picture were then counted or scored and noted as cells or lipid droplets per square millimeter, respectively.

A further experiment has as its system fibroblasts. Description: Incubation of fibroblasts with 27-HC, endolysosomal cholesterol accumulation. The class given is cell-based.
The subject of experiment [5] is hyperlipidemic LDLR knockout mice. The experiment in a line: HFC diet supplemented with 27-hydroxycholesterol in hyperlipidemic LDLR knockout mice. The class given is in vivo. Conditions: HFC diet supplemented with 27-hydroxycholesterol 0.1% w/w for three weeks vs HFC diet. The source says: To determine whether exogenous 27-HC can reduce hepatic inflammation, hyperlipidemic LDLR knockout mice may be fed either chow, HFC diet or HFC diet supplemented with 27-hydroxycholesterol (0.1% w/w) for three weeks. Then, the mice may be sacrificed and detailed characterization of liver and plasma may be performed.

In the case of `C[C@@H](CO)CCC[C@@H](C)[C@H]1CC[C@H]2[C@@H]3CC=C4C[C@@H](O)CC[C@]4(C)[C@H]3CC[C@]12C` [27-HC, 27-hydroxycholesterol], in the experiment on LDLr−/− mice [1] (27-HC 40 mg/kg s.c. injected groups vs control-injected groups, 3 weeks, FIG. 2A), the Plasma cholesterol levels entry is recorded as “do not show altered cholesterol levels”. In addition, the Plasma triglycerides result in the experiment with LDLr−/− mice [1] (Group D: high-fat diet, daily 27-HC 40 mg/kg s.c. for three weeks, vs Groups C and E, FIG. 2B) is “diminished”. The Liver cholesterol levels entry with LDLr−/− mice [2] (27-HC 40 mg/kg s.c. injected groups vs control-injected groups, 3 weeks, FIG. 2C) is on record as “do not show altered cholesterol levels”. In addition, in the experiment with LDLr−/− mice [2] (among high-fat diet groups C-E, FIG. 2D), the Liver triglycerides result is recorded as “no significant differences”. Moreover, the “Steatosis score, HE staining” value with LDLr−/− mice [3] (FIG. 2E) was “do not show any statistical significance or trends”. Moreover, the “Steatosis score, oil Red O staining” value with LDLr−/− mice [3] (FIG. 2F) is “do not show any statistical significance or trends”. For the same molecule, the “Infiltrated macrophages (MAC1 staining)” value is reported as “significantly decreased” with LDLr−/− mice [4] (Group D: high-fat diet, daily 27-HC for three weeks) and “significantly decreased” in the experiment on LDLr−/− mice [4] (Group E: high-fat diet, two weeks control injections then one week 27-HC). The “Neutrophils (NIMP staining)” value in the experiment with LDLr−/− mice [4] (Group D: high-fat diet, daily 27-HC for three weeks, FIG. 3B) was “decreased neutrophils”. Besides, in the experiment with fibroblasts, the Endolysosomal cholesterol accumulation result is reported as “decrease endolysosomal cholesterol accumulation”. The “Liver and systemic inflammation” value in experiment [5] is “reduced liver and systemic inflammation”. Further, in experiment [5], the Lysosomal cholesterol accumulation result was “less lysosomal cholesterol accumulation”.
